Measurements taken from patent US20120016010A1, “RNA Interference Mediated Inhibition of BTB and CNC Homology 1, Basic Leucine Zipper Transcription Factor 1 (BACH1) Gene Expression Using Short Interfering Nucleic Acid (siNA)” (Merck Sharp & Dohme Corp, priority 2009, published 2012).

What follows are substances tested on Male CD rats. Conditions: rat, in vivo, 10 mg/kg.
Description: Male CD rats were anaesthetised and intra-tracheally dosed with 200 ul of either vehicle, Poly I:C (1 mg/kg) or siNA (10 mg/kg). 24 hours later the rats were euthanized and the lungs lavaged 3 times with 5 ml of heparinised PBS. Total and differential cell counts as well as cytokine analysis were performed on the lung lavage fluid.

| Substance | cytokine production | inflammatory cell (neutrophils and macrophages) influx |
| --- | --- | --- |
| 29961-DC (sense CUACACUGCUAAACUGAUUTT; antisense AAUCAGUUUAGCAGUGUAGUU; inverted abasic end caps, TT overhangs, modified nucleotides, further chemistry not given here) | no significant increases | no significant increases |
| 29947-DC (sense GGAAUCCUGCUUUCAGUUUTT; antisense AAACUGAAAGCAGGAUUCCUU; inverted abasic caps (B), 2'-modified nucleotides, further chemistry not given here) | no significant increases | no significant increases |
| 29964-DC (sense GAUUUGCAGGUGAUGUUAATT; antisense UUAACAUCACCUGCAAAUCUU; inverted abasic end caps, TT overhangs, modified nucleotides, further chemistry not given here) | no significant increases | no significant increases |
| 29988-DC (sense AUUUGAACCUUUAAUUCAGTT; antisense CUGAAUUAAAGGUUCAAAUUU; inverted abasic end caps, TT overhangs, modified nucleotides, further chemistry not given here) | no significant increases | no significant increases |
